Measured values from patent US9938261B2, “Heterocyclic compounds and methods of use thereof” (AMBIT BIOSCIENCES CORPORATION, priority 2011, dated 2018).

How the values were obtained:
PDGFRβ = target: T1, PDGFRβ (Homo sapiens, UniProt P09619); assay: Competition binding assay, PDGFRβ Kd; conditions: competition binding
T1 construct: made in house
Procedure, shortened: (§1)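 First, biotinylated affinity ligands were loaded onto streptavidin magnetic beads and blocked. Kinase, beads and compound were then equilibrated 1 hour at room temperature, washed, and eluted with non-biotinylated ligand. Eluted kinase was measured by qPCR, with Kd fitted from an eleven-point threefold dilution series.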

FLT3 = target: T2, FLT3 (Homo sapiens, UniProt P36888); assay: Competition binding assay, FLT3 Kd; conditions: competition binding
T2 construct: made in house
T2 sequence (P36888 27-993): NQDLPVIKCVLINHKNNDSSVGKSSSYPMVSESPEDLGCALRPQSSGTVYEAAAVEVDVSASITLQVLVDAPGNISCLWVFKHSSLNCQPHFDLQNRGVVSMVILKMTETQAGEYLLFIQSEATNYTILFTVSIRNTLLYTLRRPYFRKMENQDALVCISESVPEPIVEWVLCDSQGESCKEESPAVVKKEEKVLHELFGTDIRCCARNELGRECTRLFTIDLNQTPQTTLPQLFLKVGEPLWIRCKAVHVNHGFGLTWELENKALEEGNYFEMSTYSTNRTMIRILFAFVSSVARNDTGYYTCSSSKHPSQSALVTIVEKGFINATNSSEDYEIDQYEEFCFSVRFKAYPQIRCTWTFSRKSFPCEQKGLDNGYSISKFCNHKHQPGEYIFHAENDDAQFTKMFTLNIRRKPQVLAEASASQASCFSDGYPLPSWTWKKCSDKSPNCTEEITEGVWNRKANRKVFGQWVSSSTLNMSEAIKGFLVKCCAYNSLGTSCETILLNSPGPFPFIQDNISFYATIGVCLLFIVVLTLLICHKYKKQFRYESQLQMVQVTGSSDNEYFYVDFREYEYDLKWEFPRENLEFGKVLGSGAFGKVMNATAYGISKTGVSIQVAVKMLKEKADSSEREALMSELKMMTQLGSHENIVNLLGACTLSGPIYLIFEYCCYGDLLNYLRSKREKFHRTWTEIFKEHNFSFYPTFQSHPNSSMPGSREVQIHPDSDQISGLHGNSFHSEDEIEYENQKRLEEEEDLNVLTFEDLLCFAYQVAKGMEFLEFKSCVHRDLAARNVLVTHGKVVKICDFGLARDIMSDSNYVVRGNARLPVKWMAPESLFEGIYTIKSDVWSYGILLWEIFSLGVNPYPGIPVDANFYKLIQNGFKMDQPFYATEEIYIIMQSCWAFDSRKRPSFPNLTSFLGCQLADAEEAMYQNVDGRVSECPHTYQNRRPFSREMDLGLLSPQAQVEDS
Procedure, shortened: as §1

CSF1R [1] = target: T3, CSF1R (Homo sapiens, UniProt P07333); assay: HEK293 CSF1R phosphorylation MSD assay; type: cell-based; design: expressed in transfected cells; host or cells: HEK293; conditions: HEK293 cells, M-CSF stimulated CSF1R phosphorylation, MSD; read-out: HEK293 pCSF1R M-CSF MSD:IC50
T3 sequence (P07333 20-972): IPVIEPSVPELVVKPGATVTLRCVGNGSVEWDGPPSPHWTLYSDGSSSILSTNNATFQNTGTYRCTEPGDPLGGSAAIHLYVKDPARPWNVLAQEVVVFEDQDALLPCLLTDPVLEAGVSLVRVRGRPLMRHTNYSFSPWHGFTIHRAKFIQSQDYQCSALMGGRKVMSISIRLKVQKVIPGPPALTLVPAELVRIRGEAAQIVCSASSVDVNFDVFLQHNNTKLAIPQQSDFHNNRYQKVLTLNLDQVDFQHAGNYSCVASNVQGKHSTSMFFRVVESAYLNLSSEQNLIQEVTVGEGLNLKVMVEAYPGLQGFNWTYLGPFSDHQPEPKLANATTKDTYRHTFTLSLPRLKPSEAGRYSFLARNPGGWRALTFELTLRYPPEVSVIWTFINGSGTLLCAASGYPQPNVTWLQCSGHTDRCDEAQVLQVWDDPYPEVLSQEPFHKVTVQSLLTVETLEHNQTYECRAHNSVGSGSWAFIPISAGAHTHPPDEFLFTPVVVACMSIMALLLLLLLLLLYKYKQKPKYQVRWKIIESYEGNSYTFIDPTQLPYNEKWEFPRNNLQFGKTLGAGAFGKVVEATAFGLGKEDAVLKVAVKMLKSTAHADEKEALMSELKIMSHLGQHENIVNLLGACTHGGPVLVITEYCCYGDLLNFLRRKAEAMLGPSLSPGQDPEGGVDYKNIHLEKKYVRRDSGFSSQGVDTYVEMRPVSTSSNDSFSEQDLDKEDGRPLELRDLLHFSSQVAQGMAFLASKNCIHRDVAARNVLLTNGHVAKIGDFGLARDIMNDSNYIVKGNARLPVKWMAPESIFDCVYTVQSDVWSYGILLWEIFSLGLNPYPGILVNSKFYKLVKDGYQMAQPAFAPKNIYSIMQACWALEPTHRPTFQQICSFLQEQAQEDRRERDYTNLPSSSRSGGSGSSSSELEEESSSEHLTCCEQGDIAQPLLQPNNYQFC
Procedure, shortened: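 Ligand-induced CSF1R autophosphorylation was measured by MSD sandwich assay: CSF1R-FKBP from lysates captured via FK506, anti-phosphotyrosine readout. Cells were exposed to compound for 2 h (9-point, half-log, 0.5% DMSO) before 5 min 50 ng/mL M-CSF. Reported IC50 is the mean of duplicate-plate IC50s relative to DMSO control.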

CSF1R [2] = target: T3, CSF1R; assay: Competition binding assay, CSF1R Kd; design: made in house; conditions: competition binding
Procedure, shortened: as §1

T1 sequence (P09619 33-1106): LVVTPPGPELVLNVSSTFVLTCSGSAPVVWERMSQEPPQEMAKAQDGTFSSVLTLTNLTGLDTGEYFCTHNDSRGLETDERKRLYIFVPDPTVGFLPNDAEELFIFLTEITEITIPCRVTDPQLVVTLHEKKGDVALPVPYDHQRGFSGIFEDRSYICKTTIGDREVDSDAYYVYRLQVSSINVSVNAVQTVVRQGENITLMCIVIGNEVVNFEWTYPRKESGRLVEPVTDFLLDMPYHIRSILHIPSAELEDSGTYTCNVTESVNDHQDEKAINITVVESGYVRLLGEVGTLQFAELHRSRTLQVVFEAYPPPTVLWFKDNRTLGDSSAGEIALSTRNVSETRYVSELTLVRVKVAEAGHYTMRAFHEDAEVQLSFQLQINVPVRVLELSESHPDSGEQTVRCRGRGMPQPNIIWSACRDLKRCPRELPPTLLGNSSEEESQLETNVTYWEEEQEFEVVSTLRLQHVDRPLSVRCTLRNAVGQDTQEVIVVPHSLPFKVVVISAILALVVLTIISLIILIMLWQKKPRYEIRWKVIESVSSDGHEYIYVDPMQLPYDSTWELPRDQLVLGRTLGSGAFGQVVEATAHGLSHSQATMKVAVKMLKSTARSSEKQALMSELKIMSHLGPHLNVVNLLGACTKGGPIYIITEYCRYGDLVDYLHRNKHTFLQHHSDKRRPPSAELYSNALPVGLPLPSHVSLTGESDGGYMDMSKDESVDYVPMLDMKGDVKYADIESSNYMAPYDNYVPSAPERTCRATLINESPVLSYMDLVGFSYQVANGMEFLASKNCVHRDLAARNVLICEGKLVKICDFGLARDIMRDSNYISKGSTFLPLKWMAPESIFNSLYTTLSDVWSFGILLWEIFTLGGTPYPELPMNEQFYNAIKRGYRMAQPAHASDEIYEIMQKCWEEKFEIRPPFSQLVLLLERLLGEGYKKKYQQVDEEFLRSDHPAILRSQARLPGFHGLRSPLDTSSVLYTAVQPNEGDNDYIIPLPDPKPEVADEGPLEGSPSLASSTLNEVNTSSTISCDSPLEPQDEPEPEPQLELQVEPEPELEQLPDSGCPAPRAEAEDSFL

SMILES	Kd (PDGFRβ)	Kd (FLT3)	IC50 (CSF1R [1])	Kd (CSF1R [2])
O[C@@H]1CCCC[C@H]1Nc1nc2cc(F)c(Cn3cnc4cccnc43)cc2s1 [Example 154, (1R,2R)-2-((6-((3H-imidazo[4,5-b]pyridin-3-yl)methyl)-5-fluorobenzo[d]thiazol-2-yl)amino)cyclohexanol]	500 to 2000 nM	1000 to 5000 nM	50 to 200 nM	5 to 20 nM
O[C@@H]1CCCC[C@H]1Nc1nc2ccc(Cn3cnc4cc(Cl)c(Cl)nc43)cc2s1 [Example 137, (1R,2R)-2-((6-((5,6-dichloro-3H-imidazo[4,5-b]pyridin-3-yl)methyl)benzo[d]thiazol-2-yl)amino)cyclohexanol]	≤ 50 nM	200 to 1000 nM	≤ 50 nM	≤ 5 nM
O[C@@H]1CCCC[C@H]1Nc1nc2ccc(Cn3cnc4cc(F)ccc43)cc2s1 [Example 129, (1R,2R)-2-((6-((5-fluoro-1H-benzo[d]imidazol-1-yl)methyl)benzo[d]thiazol-2-yl)amino)cyclohexanol]	≤ 50 nM	1000 to 5000 nM	≤ 50 nM	≤ 5 nM
O[C@@H]1[C@H](O)CCC[C@H]1Nc1nc2ccc(Cn3cnc4cc(OC5COC5)ccc43)cc2s1 [Example 233, (1R,2S,3R)-3-((6-((5-(oxetan-3-yloxy)-1H-benzo[d]imidazol-1-yl)methyl)benzo[d]thiazol-2-yl)amino)cyclohexane-1,2-diol]	≤ 50 nM	200 to 1000 nM	≤ 50 nM	≤ 5 nM
O[C@H]1[C@@H](O)CCC[C@H]1Nc1nc2ccc(Cn3cnc4cc(F)cnc43)cc2s1 [Example 228, (1S,2R,3R)-3-((6-((6-fluoro-3H-imidazo[4,5-b]pyridin-3-yl)methyl)benzo[d]thiazol-2-yl)amino)cyclohexane-1,2-diol]	50 to 500 nM	> 5000 nM	> 500 nM	> 50 nM
C=C(c1ccc2c(c1)ncn2Cc1ccc2nc(N[C@@H]3CCCC[C@H]3O)sc2c1)C(F)(F)F [Example 175, (1R,2R)-2-((6-((5-(3,3,3-trifluoroprop-1-en-2-yl)-1H-benzo[d]imidazol-1-yl)methyl)benzo[d]thiazol-2-yl)amino)cyclohexanol]	50 to 500 nM	200 to 1000 nM	50 to 200 nM	5 to 20 nM
Cn1nnc(-c2ccc3c(c2)ncn3Cc2ccc3nc(N[C@@H]4CCC[C@@H](O)[C@H]4O)sc3c2)n1 [Example 236, (1R,2S,3R)-3-((6-((5-(2-methyl-2H-tetrazol-5-yl)-1H-benzo[d]imidazol-1-yl)methyl)benzo[d]thiazol-2-yl)amino)cyclohexane-1,2-diol]	50 to 500 nM	200 to 1000 nM	50 to 200 nM	5 to 20 nM
COc1nc2c(cc1Br)ncn2Cc1ccc2nc(N[C@@H]3CCCC[C@H]3O)sc2c1 [Example 123, (1R,2R)-2-((6-((6-bromo-5-methoxy-3H-imidazo[4,5-b]pyridin-3-yl)methyl)benzo[d]thiazol-2-yl)amino)cyclohexanol]	≤ 50 nM	200 to 1000 nM	50 to 200 nM	5 to 20 nM

Second part, the compound after the results:

Kd (PDGFRβ)	Kd (FLT3)	IC50 (CSF1R [1])	Kd (CSF1R [2])	SMILES
50 to 500 nM	200 to 1000 nM	50 to 200 nM	≤ 5 nM	COc1ccc2ncc(Cc3ccc4nc(N[C@@H]5CCCC[C@H]5O)sc4c3)n2n1 [Example 150, (1R,2R)-2-((6-((6-methoxyimidazo[1,2-b]pyridazin-3-yl)methyl)benzo[d]thiazol-2-yl)amino)cyclohexanol]
≤ 50 nM	1000 to 5000 nM	≤ 50 nM	≤ 5 nM	O[C@@H]1CCCC[C@H]1Nc1nc2ccc(Cn3cnc4cc(-n5cncn5)cnc43)cc2s1 [Example 145, (1R,2R)-2-((6-((6-(1H-1,2,4-triazol-1-yl)-3H-imidazo[4,5-b]pyridin-3-yl)methyl)benzo[d]thiazol-2-yl)amino)cyclohexanol]
≤ 50 nM	1000 to 5000 nM	50 to 200 nM	5 to 20 nM	OC[C@H]1CCCC[C@H]1Nc1nc2ccc(Cn3cnc4cc(Br)cnc43)cc2s1 [Example 136, ((1S,2R)-2-((6-((6-bromo-3H-imidazo[4,5-b]pyridin-3-yl)methyl)benzo[d]thiazol-2-yl)amino)cyclohexyl)methanol]
500 to 2000 nM	> 5000 nM	> 500 nM	20 to 50 nM	O[C@@H]1CCCC[C@H]1Nc1nc2ccc(Cc3cnc4sccn34)cc2s1 [Example 157, (1R,2R)-2-((6-(imidazo[2,1-b]thiazol-5-ylmethyl)benzo[d]thiazol-2-yl)amino)cyclohexanol]
≤ 50 nM	1000 to 5000 nM	200 to 500 nM	5 to 20 nM	O[C@@H]1CCCC[C@H]1Nc1nc2ccc(Cn3cnc4cc(C(F)(F)F)ccc43)cc2s1 [Example 130, (1R,2R)-2-((6-((5-(trifluoromethyl)-1H-benzo[d]imidazol-1-yl)methyl)benzo[d]thiazol-2-yl)amino)cyclohexanol]
50 to 500 nM	1000 to 5000 nM	50 to 200 nM	5 to 20 nM	O[C@@H]1CCCC[C@H]1Nc1nc2ccc(Cc3cnc4cc(-n5cncn5)ccn34)cc2s1 [Example 169, (1R,2R)-2-((6-((7-(1H-1,2,4-triazol-1-yl)imidazo[1,2-a]pyridin-3-yl)methyl)benzo[d]thiazol-2-yl)amino)cyclohexanol]
≤ 50 nM	1000 to 5000 nM	200 to 500 nM	5 to 20 nM	O[C@@H]1CCCC[C@H]1Nc1nc2ccc(Cn3cnc4cc(OC(F)(F)F)ccc43)cc2s1 [Example 149, (1R,2R)-2-((6-((5-(trifluoromethoxy)-1H-benzo[d]imidazol-1-yl)methyl)benzo[d]thiazol-2-yl)amino)cyclohexanol]
50 to 500 nM	200 to 1000 nM	> 500 nM	5 to 20 nM	O=C(O)/C=C/c1ccc2c(c1)ncn2Cc1ccc2nc(N[C@@H]3CCCC[C@H]3O)sc2c1 [Example 224, (E)-3-(1-((2-(((1R,2R)-2-hydroxycyclohexyl)amino)benzo[d]thiazol-6-yl)methyl)-1H-benzo[d]imidazol-5-yl)acrylic acid]
500 to 2000 nM	> 5000 nM	50 to 200 nM	5 to 20 nM	N#Cc1ccc2c(c1)ncn2Cc1ccc2nc(N[C@@H]3CCCC[C@H]3O)sc2c1 [Example 108, 1-((2-(((1R,2R)-2-hydroxycyclohexyl)amino)benzo[d]thiazol-6-yl)methyl)-1H-benzo[d]imidazole-5-carbonitrile]
500 to 2000 nM	1000 to 5000 nM	50 to 200 nM	> 50 nM	O[C@@H]1CCCC[C@H]1Nc1nc2ncc(Cn3cnc4cccnc43)cc2s1 [Example 114, (1R,2R)-2-((6-((3H-imidazo[4,5-b]pyridine-3-yl)methyl)thiazolo[4,5-b]pyridine-2-yl)amino)cyclohexanol]
500 to 2000 nM	1000 to 5000 nM	50 to 200 nM	5 to 20 nM	N#Cc1ccc2ncn(Cc3ccc4nc(N[C@@H]5CCCC[C@H]5O)sc4c3)c2c1 [Example 111, 1-((2-(((1R,2R)-2-hydroxycyclohexyl)amino)benzo[d]thiazol-6-yl)methyl)-1H-benzo[d]imidazole-6-carbonitrile]
50 to 500 nM	1000 to 5000 nM	50 to 200 nM	5 to 20 nM	CC(=O)c1ccc2ncn(Cc3ccc4nc(N[C@@H]5CCCC[C@H]5O)sc4c3)c2c1 [Example 120, 1-(1-((2-(((1R,2R)-2-hydroxycyclohexyl)amino)benzo[d]thiazol-6-yl)methyl)-1H-benzo[d]imidazol-6-yl)ethanone]
